14 compounds from patent US7390910B2, “Compounds for treating tumors” (priority 2003, dated 2008) can be followed below.

One test concerns KB cells. Briefly: cells. Type of test: cell-based. Conditions: for IC50: 3 days, SRB. Here is the method:
(§1) Cell Survival Assay: Standard Pharmacological Test Procedure. […] Compounds are incubated with cells for 3 days.

A further test has as its system KBV1. Put plainly: cells. Type of test: cell-based. Conditions: for inhibition at 3 µM: KB-V1, 3000 nM; for IC50: 3 days, SRB. Here is the method: as §1
A further test concerns KB85. Put plainly: cells. Type of test: cell-based. To be noted: for IC50: 3 days, SRB. On the procedure:
as §1

For test [1], the system named is bovine microtubule-associated protein (MAP)-rich tubulin. Type of test: biochemical. Conditions: 0.3 uM. The essentials:
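MAP-rich bovine tubulin at 1.5 mg/ml final was dissolved in cold PEM buffer (80 mM Na-PIPES pH 6.9, 1 mM MgCl2, 1 mM EGTA) with 1 mM GTP, then centrifuged at 12,000×g for 10 min at 4° C. Aliquots of 100 μl were added quickly to a low-volume 96-well plate holding duplicate 10 μl compound samples. Absorbance at 340 nm was read each minute for 60 min at 24° C.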

For another test, the system named is Colo205. Put plainly: Cell survival assay (SRB), Colo205. Type of test: cell-based. Conditions: Homo sapiens, COLO 205, 72 h, Colo205 cells, 3 days. On the procedure: as §1
A further test concerns HCT-15. Briefly: Cell survival assay (SRB), HCT-15. Type of test: cell-based. To be noted: HCT-15 cells. Here is the method:
as §1

The next test concerns NCl-H1299. Briefly: Cell survival assay (SRB), NCl-H1299. Type of test: cell-based. Conditions: NCl-H1299 cells. Here is the method: as §1
The next test has as its system LOX. Briefly: Cell survival assay (SRB), LOX. Type of test: cell-based, human. Conditions: LOX cells. Here is the method:
as §1

In test [2] the test system is Human Melanoma Carcinoma Lox. Briefly: Growth of tumors in nude mice (LOX xenograft). Type of test: in vivo, athymic nu/nu female mice. From the text:
Growth of Tumors in Nude Mice. […] A p-value ≦0.05 indicates a statistically significant reduction in relative tumor growth of treated group compared to that of the vehicle control group.

*1 amine or outer side, *2 acyl side, *3 side chain or, on linkers, in order; H or OH if unused. Where a SMILES comes first, the peptide text is derived from it. [ ]: non-standard residue; d: D form. The star is where a group is joined. NMePhe(β,β-Me2) = CN[C@H](C(=O)O)C(C)(C)c1ccccc1; X1 = C/C(=C\[C@H](C(C)C)N(C)[*:1])C(=O)[*:2]; Tle = CC(C)(C)[C@H](N)C(=O)O; NHBn = c1ccc(CN*)cc1

By IC50 is commonly meant the point on the concentration scale where inhibition reaches its midpoint. Read a low IC50 as inhibition by little substance. The inhibition is the relative decrease from the control value, in per cent. Low values mean little suppression, high ones strong suppression. Turning to `CN[C@H](C(=O)N[C@H](C(=O)N(C)[C@H](/C=C/c1nnn[nH]1)C(C)C)C(C)(C)C)C(C)(C)c1ccccc1` [Example 86, (2S)-N-[(1S,2E)-1-isopropyl-3-(1H-tetraazol-5-yl)-2-propenyl]-N,3,3-trimethyl-2-{[(2S)-3-methyl-2-(methylamino)-3-phenylbutanoyl]amino}butanamide], the IC50 is 1150 nM in the test on KB cells (Homo sapiens, KB, 72 h); 1820 nM in the test with KB85 (72 h); 71 nM in the test on Colo205. In the test with KBV1 (Homo sapiens), this compound yielded an inhibition at 3 µM of 5%. In addition, in test [1], the “Tubulin Polym. % inhibition at 0.3 uM” value was 31%.

`CN[C@H](C(=O)N[C@H](C(=O)N(C)[C@H](/C=C(\C)C(=O)NO)C(C)C)C(C)(C)C)C(C)(C)c1ccccc1` [Example 25, (E,4S)-4-[((2S)-3,3-dimethyl-2-{[(2S)-3-methyl-2-(methylamino)-3-phenylbutanoyl]amino}butanoyl)(methyl)amino]-N-hydroxy-2,5-dimethyl-2-hexenamide]: the IC50 in the test with KB cells (Homo sapiens, KB, 72 h) was found to be 39 nM; with KB85 (72 h), 227 nM; in the test with Colo205, 20 nM. In the test with KBV1 (Homo sapiens), this compound displayed an inhibition at 3 µM of 7%. In addition, in test [1], the “Tubulin Polym. % inhibition at 0.3 uM” value came to 75%.

With “(2E,4S)-2,5-dimethyl-4-(methyl{3-methyl-N-[(2S)-3-methyl-2-(methylamino)-3-phenylbutyl]-L-valyl}amino)-2-hexenoic acid [Example 87]”, the IC50 in the test on HCT-15 amounted to 759 nM; in the test on KB cells, 104 nM; with KB85, 312 nM; in the test with NCl-H1299 it was 295 nM; in the test with LOX, 151 nM. The “KBV1 % inhibition @ 3000 nM” value in the test with KBV1 (3000 nM) is given as 14%(2). The “Tubulin Polym. % inhibition at 0.3 uM” value in test [1] is given as 28%.

Turning to `C/C(=C\[C@H](C(C)C)N(C)C(=O)[C@@H](NC(=O)[C@@H](C)C(C)(C)c1ccccc1)C(C)(C)C)C(=O)O` [Example 92, (E,4S)-4-[((2S)-2-{[(2S)-2,3-dimethyl-3-phenylbutanoyl]amino}-3,3-dimethylbutanoyl)(methyl)amino]-2,5-dimethyl-2-hexenoic acid], the IC50 in the test on HCT-15 (Homo sapiens) is 1380 nM; in the test on KB cells (Homo sapiens, KB, 72 h) it was 861 nM; with KB85 (72 h), 990 nM; in the test with NCl-H1299 it was 1200 nM; in the test with LOX (Homo sapiens) it was 1070 nM. For the same compound, at 3 µM the inhibition in the test on KBV1 (Homo sapiens) was 30%. Further, in [1], the “Tubulin Polym. % inhibition at 0.3 uM” value is 94%.

On to `CN[C@H](C(=O)N[C@H](C(=O)N(C)[C@H](/C=C(\C)C(=O)N1CCC[C@@H]1C(=O)N1CCC[C@@H]1C(=O)NCc1ccccc1)C(C)C)C(C)(C)C)C(C)(C)c1ccccc1` [Example 28, 1-{(2E,4S)-2,5-dimethyl-4-[methyl(N-methyl-3-phenyl-L-valyl-3-methyl-L-valyl)amino]hex-2-enoyl}-D-prolyl-N-benzyl-D-prolinamide] (H-[NMePhe(β,β-Me2)][Tle][X1][dP][dP]-NHBn), for which the IC50 came to 1.07 nM in the test with KB cells (Homo sapiens, KB, 72 h); 21.9 nM with KB85 (72 h); 0.25 nM in the test with Colo205. Further, the inhibition at 3 µM with KBV1 (Homo sapiens) was determined as 14%. In addition, the “Tubulin Polym. % inhibition at 0.3 uM” value in [1] is on record as 56(3) %. The “% T/C on day 7” value in test [2] (10 mg/kg IV on days 1, 5, 9) amounted to 10%. Further, the “% T/C on day 10” value in test [2] (10 mg/kg IV on days 1, 5, 9, day 10) is 4%.

For the compound `C/C(=C\[C@H](C(C)C)N(C)C(=O)[C@@H](NC(=O)C(Cc1ccccc1)C(C)(C)c1ccccc1)C(C)(C)C)C(=O)O` (stereo partly drawn) [Example 96, (E,4S)-4-[((2S)-3,3-dimethyl-2-{[3-methyl-2-benzyl-3-phenylbutanoyl]amino}butanoyl)(methyl)amino]-2,5-dimethyl-2-hexenoic acid], the IC50 in the test with KB cells (Homo sapiens, KB, 72 h) was 846 nM; in the test with KBV1 (Homo sapiens, KB-V1, 72 h), 2630 nM; with KB85 (72 h) it was 1120 nM; with Colo205, 340 nM. Moreover, the inhibition at 3 µM with KBV1 (Homo sapiens) was determined as 11%. The “Tubulin Polym. % inhibition at 0.3 uM” value in [1] stood at 46%.

Regarding `CCOC(=O)/C(C)=C/[C@H](C(C)C)N(C)C(=O)[C@@H](NC(=O)C(OC)C(C)(C)c1ccccc1)C(C)(C)C` (stereo partly drawn) [Example 104, Ethyl (E,4S)-4-[{(2S)-2-[(2-methoxy-3-methyl-3-phenylbutanoyl)amino]-3,3-dimethylbutanoyl}(methyl)amino]-2,5-dimethyl-2-hexenoate], the concentration for half-maximal inhibition (IC50) in the test with KB cells was 3000 nM; in the test with KB cells (Homo sapiens, KB, 72 h) it was 1730 nM; in the test with KBV1, 3000 nM; in the test on KBV1 (Homo sapiens, KB-V1, 72 h), 2400 nM; with KB85 (72 h), 2130 nM; with KB85, 3000 nM. In the test on Colo205, the IC50 is over 1000 nM. Besides, in [1], the “Tubulin Polym. % inhibition at 0.3 uM” value came to 38%.

Consider `CO[C@H](C(=O)N[C@H](C(=O)N(C)[C@H](/C=C(\C)C(=O)O)C(C)C)C(C)(C)C)C(C)(C)c1ccccc1` [Example 105, (E,4S)-4-[{N-[(2S)-2-methoxy-3-methyl-3-phenylbutanoyl]-3-methyl-L-valyl}(methyl)amino]-2,5-dimethyl-2-hexenoic acid], for which the inhibition at 3 µM is 43% in the test with KB cells (Homo sapiens, 72 h, 3000 nM); 0% in the test on KBV1 (Homo sapiens); 21% in the test on KB85 (3000 nM). Moreover, the IC50 was found to be 2690 nM in the test with KB cells (Homo sapiens, KB, 72 h); 1740 nM with Colo205; 1740 nM in the test with LOX (Homo sapiens). In addition, the “Tubulin Polym. % inhibition at 0.3 uM” value in test [1] is 64%.

With `CSC(C(=O)N[C@H](C(=O)N(C)[C@H](/C=C(\C)C(=O)O)C(C)C)C(C)(C)C)C(C)(C)c1ccccc1` (stereo partly drawn) [Example 102, (E,4S)-4-[((2S)-3,3-dimethyl-2-{[3-methyl-2-methylsulfanyl-3-phenylbutanoyl]amino}butanoyl)(methyl)amino]-2,5-dimethyl-2-hexenoic acid], the IC50 came to 693 nM in the test on KB cells (Homo sapiens, KB, 72 h); 1150 nM with KB85 (72 h); 280 nM in the test on Colo205. In addition, the “KBV1 % inhibition @6000” value with KBV1 was 40%@6000. Moreover, the “Tubulin Polym. % inhibition at 0.3 uM” value in [1] came out at 79%.

For the compound `C/C(=C\[C@H](C(C)C)N(C)C(=O)[C@@H](NC(=O)[C@@H](O)C(C)(C)c1ccccc1)C(C)(C)C)C(=O)O` [Example 107, (E,4S)-4-[{N-[(2S)-2-hydroxy-3-methyl-3-phenylbutanoyl]-3-methyl-L-valyl}(methyl)amino]-2,5-dimethyl-2-hexenoic acid], the IC50 is over 3000 nM in the test with KB cells (Homo sapiens, KB, 72 h); over 3000 nM in the test with KBV1 (Homo sapiens, KB-V1, 72 h); over 3000 nM in the test with KB85 (72 h); over 1000 nM in the test with Colo205. In addition, the “Tubulin Polym. % inhibition at 0.3 uM” value in test [1] is listed as 21%.

Consider `CN[C@H](C(=O)N[C@H](C(=O)N(C)[C@H](/C=C(\C)C(=O)N1CCN(C)CC1)C(C)C)C(C)(C)C)C(C)(C)c1ccccc1` [Example 26, N,β,β-trimethyl-L-phenylalanyl-N^1-[(1S,2E)-1-isopropyl-3-methyl-4-(4-methyl-1-piperazinyl)-4-oxo-2-butenyl]-N^1,3-dimethyl-L-valinamide], for which the IC50 in the test on KB cells (Homo sapiens, KB, 72 h) amounted to 33 nM; with KBV1 (Homo sapiens, KB-V1, 72 h), 2330 nM; with KB85 (72 h), 60 nM; in the test with LOX (Homo sapiens), 46 nM. The “Tubulin Polym. % inhibition at 0.3 uM” value in test [1] was 71(2) %. The “% T/C on day 7” value in [2] (15 mg/kg IV on days 1, 5, 9) is given as 4%.

Take `CN[C@H](C(=O)N[C@H](C(=O)N(C)[C@H](/C=C(\C)C(=O)N1CCC[C@H]1[C@H](OC)[C@@H](C)C(=O)N[C@@H](Cc1ccccc1)c1nccs1)C(C)C)C(C)(C)C)C(C)(C)c1ccccc1` [Example 29]: the IC50 in the test with KB cells turned out to be 0.75 nM; with KBV1, 180 nM; with KB85 it was 4.1 nM. In addition, the “Tubulin Polym. % inhibition at 0.3 uM” value in test [1] turned out to be 62%. Further, the “% T/C on day 7” value in [2] (10 mg/kg IV on days 1, 5, 9) is on record as 14%. For the same compound, the “% T/C on day 9” value in [2] (10 mg/kg IV on days 1, 5, 9, day 9) is 9%.

For the compound `CN[C@H](C(=O)N[C@H](C(=O)N(C)[C@H](/C=C(\C)C(=O)N1CCC[C@H]1[C@H](OC)[C@@H](C)C(=O)OC)C(C)C)C(C)(C)C)C(C)(C)c1ccccc1` [Example 30, N,β,β-trimethyl-L-phenylalanyl-N^1-((1S,2E)-4-{(2S)-2-[(1R,2R)-1,3-dimethoxy-2-methyl-3-oxopropyl]pyrrolidin-1-yl}-1-isopropyl-3-methyl-4-oxobut-2-enyl)-N^1,3-dimethyl-L-valinamide], the IC50 was determined as 3.3 nM in the test on KB cells (Homo sapiens, KB, 72 h); 96 nM in the test with KBV1 (Homo sapiens, KB-V1, 72 h); 6 nM in the test with KB85 (72 h). For the same compound, the “Tubulin Polym. % inhibition at 0.3 uM” value in test [1] stood at 45%. In addition, in test [2] (5 mg/kg IV on days 1, 5, 9), the “% T/C on day 7” value was found to be 11%. The “% T/C on day 14” value in test [2] (5 mg/kg IV on days 1, 5, 9, day 14) came to 3%.

Consider `C=CCC(C(=O)N[C@H](C(=O)N(C)[C@H](/C=C(\C)C(=O)O)C(C)C)C(C)(C)C)C(C)(C)c1ccccc1` (stereo partly drawn) [Example 98, (E,4S)-4-[((2S)-3,3-dimethyl-2-{[3-methyl-2-allyl-3-phenylbutanoyl]amino}butanoyl)(methyl)amino]-2,5-dimethyl-2-hexenoic acid], for which the IC50 in the test with KB cells (Homo sapiens, KB, 72 h) was 1150 nM; in the test on KB85 (72 h), 1200 nM; in the test on Colo205, 270 nM. In addition, the “KBV1 % inhibition @6000” value in the test on KBV1 is 42%@6000. Also, the “Tubulin Polym. % inhibition at 0.3 uM” value in test [1] is 63%.
